Reference: the supplement of paper PMC10307832

What was measured:
Assay in all cases: relative viability (nuclei count vs DMSO), 5 days (fraction); higher = more cells survive
[1] = compound: CC1=C(C(=O)N2C=CSC2=N1)CCN3CCC(=C(C4=CC=CC=C4)C5=CC=C(C=C5)F)CC3 + NC(=O)Nc1cc(-c2cccc(F)c2)sc1C(=O)N[C@H]1CCCNC1 [AZD7762] (partner 0.2 µM)
In short: (§1)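 Each reported value is a median over duplicate plates. It expresses relative viability: treated-well nuclei count divided by vehicle-well nuclei count. Lung cancer cell lines in 1536-well plates were dosed by pin tool a day after seeding, alone with one drug or with a fixed anchor-drug dose plus five library-drug doses (not always all listed) in √10 steps, and nuclei were counted after 5 days.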

[2] = compound: CC1=C(C(=O)N2C=CSC2=N1)CCN3CCC(=C(C4=CC=CC=C4)C5=CC=C(C=C5)F)CC3 + COc1cc2c(Oc3ccc(NC(=O)C4(C(=O)Nc5ccc(F)cc5)CC4)cc3F)ccnc2cc1OCCCN1CCOCC1 [Foretinib] (partner 0.25 µM)
In short: as §1

[3] = compound: CC1=C(C(=O)N2C=CSC2=N1)CCN3CCC(=C(C4=CC=CC=C4)C5=CC=C(C=C5)F)CC3 + CCNC(=O)c1noc(-c2cc(C(C)C)c(O)cc2O)c1-c1ccc(CN2CCOCC2)cc1 [Luminespib] (partner 0.01 µM)
In short: as §1

[4] = compound: CC1=C(C(=O)N2C=CSC2=N1)CCN3CCC(=C(C4=CC=CC=C4)C5=CC=C(C=C5)F)CC3 + Cc1cc(Nc2cc(N3CCN(C)CC3)nc(Sc3ccc(NC(=O)C4CC4)cc3)n2)n[nH]1 [Tozasertib] (partner 0.1 µM)
In short: as §1

Cell Line | relative viability ([1]; first compound 0.08 µM) | relative viability ([1]; first compound 0.253 µM) | relative viability ([1]; first compound 0.8 µM) | relative viability ([1]; first compound 2.53 µM) | relative viability ([1]; first compound 8 µM) | relative viability ([2]; first compound 0.08 µM) | relative viability ([2]; first compound 0.253 µM) | relative viability ([2]; first compound 0.8 µM) | relative viability ([2]; first compound 2.53 µM) | relative viability ([2]; first compound 8 µM) | relative viability ([3]; first compound 0.08 µM) | relative viability ([3]; first compound 0.253 µM) | relative viability ([3]; first compound 0.8 µM) | relative viability ([3]; first compound 2.53 µM) | relative viability ([3]; first compound 8 µM) | relative viability ([4]; first compound 0.08 µM) | relative viability ([4]; first compound 0.253 µM) | relative viability ([4]; first compound 0.8 µM) | relative viability ([4]; first compound 2.53 µM) | relative viability ([4]; first compound 8 µM)
201T | 0.718 | 0.513 | 0.579 | 0.621 | 0.586 | 1.1 | 1.26 | 1.16 | 1.25 | 0.864 | 1.02 | 1.1 | 1.06 | 1.05 | 0.966 | 0.976 | 1.02 | 0.952 | 0.973 | 0.739
A-427 | 0.675 | 0.678 | 0.67 | 0.633 | 0.674 | 1.08 | 1.1 | 1.16 | 1.15 | 1 | 0.91 | 0.919 | 0.923 | 1.15 | 0.88 | 0.179 | 0.19 | 0.175 | 0.204 | 0.21
ABC-1 | 0.751 | 0.746 | 0.791 | 0.766 | 0.677 | 1.03 | 1.18 | 0.958 | 0.869 | 0.635 | 0.743 | 0.607 | 0.429 | 0.329 | 0.564 | 0.15 | 0.181 | 0.165 | 0.206 | 0.174
BEN | 0.732 | 0.677 | 0.638 | 0.638 | 0.651 | 0.708 | 0.74 | 0.639 | 0.677 | 0.595 | 0.439 | 0.33 | 0.308 | 0.308 | 0.35 | 0.48 | 0.493 | 0.493 | 0.529 | 0.551
CAL-12T | 0.605 | 0.751 | 0.576 | 0.699 | 0.503 | 1.17 | 1.04 | 1.29 | 1.23 | 0.691 | 0.224 | 0.501 | 0.384 | 0.502 | 0.385 | 0.316 | 0.304 | 0.311 | 0.302 | 0.255
ChaGo-K-1 | 0.763 | 0.919 | 0.925 | 0.928 | 0.694 | 0.884 | 1.04 | 1.04 | 0.942 | 0.548 | 0.462 | 0.648 | 0.644 | 0.514 | 0.444 | 0.202 | 0.244 | 0.215 | 0.232 | 0.21
EKVX | 0.602 | 0.753 | 0.808 | 0.553 | 0.641 | 0.671 | 1.04 | 0.815 | 0.855 | 0.677 | 0.768 | 0.915 | 0.936 | 0.871 | 0.825 | 0.385 | 0.444 | 0.35 | 0.334 | 0.359
EMC-BAC-2 | 1.18 | 0.93 | 1.01 | 1.13 | 1.01 | 0.945 | 0.982 | 0.981 | 1.12 | 0.972 | 1.23 | 1.15 | 1.28 | 1.16 | 1.03 | 0.192 | 0.278 | 0.275 | 0.278 | 0.261
EPLC-272H | 0.45 | 0.198 | 0.182 | 0.211 | 0.179 | 0.658 | 0.622 | 0.657 | 0.677 | 0.576 | 0.276 | 0.227 | 0.197 | 0.423 | 0.268 | 0.225 | 0.25 | 0.269 | 0.203 | 0.515
H3255 | 0.832 | 0.929 | 0.907 | 0.955 | 0.72 | 0.818 | 0.891 | 0.734 | 0.886 | 0.707 | 0.796 | 0.892 | 0.786 | 0.961 | 0.709 | 0.497 | 0.921 | 0.633 | 0.489 | 0.507
HARA | 0.371 | 0.347 | 0.281 | 0.296 | 0.303 | 1.19 | 0.98 | 0.956 | 0.942 | 0.649 | 0.682 | 0.73 | 0.688 | 0.477 | 0.426 | 0.111 | 0.117 | 0.104 | 0.111 | 0.114
HCC-15 | 1.18 | 1.43 | 1.28 | 1.15 | 1.09 | 1.06 | 0.995 | 1.16 | 1.07 | 0.774 | 0.444 | 0.321 | 0.22 | 0.444 | 0.293 | 0.347 | 0.447 | 0.379 | 0.368 | 0.281
HCC-827 | 0.16 | 0.214 | 0.236 | 0.224 | 0.209 | 1.11 | 1.08 | 1.05 | 1.13 | 1.01 | 0.742 | 0.606 | 0.552 | 0.781 | 0.342 | 0.43 | 0.396 | 0.389 | 0.472 | 0.399
HOP-62 | 0.445 | 0.51 | 0.522 | 0.534 | 0.323 | 1.17 | 0.995 | 1.14 | 1.06 | 0.705 | 0.926 | 0.909 | 0.923 | 0.92 | 0.461 | 0.402 | 0.369 | 0.305 | 0.323 | 0.258
LC-2-ad | 0.777 | 0.725 | 0.866 | 0.966 | 0.613 | 0.971 | 1.09 | 0.892 | 1.12 | 0.761 | 1.27 | 1.36 | 1.12 | 1.19 | 0.918 | 0.489 | 0.487 | 0.468 | 0.425 | 0.418
